This is an account of results in patent publication US20230219986A1, “NOVEL AMINOPYRIMIDINE EGFR INHIBITOR” (QILU PHARMACEUTICAL CO., LTD., priority 2020, published 2023).

Test [1] concerns the target Ba/F3 L858R/T790M/C797S EGFR triple mutant cell line (Homo sapiens, UniProt P00533, T790M/C797S/L858R, cells depend on it). Put plainly: Cell proliferation inhibition experiment (CellTiter-Glo), Ba/F3 L858R/T790M/C797S. The following applies: 72 hours, Cell Titer-Glo, read-out: Ba/F3 (L858R/T790M/C797S) IC50. Type of test: cell-based. As for the experimental part: (§1) 3) 30 nL of gradient diluted compound was transferred into the 384-well experimental plate using Echo 550 (Labcyte) at a DMSO final concentration of 0.1%, and the culture plate was incubated in a cell incubator for 72 hours (37° C., 5% CO2).
(§2) 4) 30 μL of Cell Titer-Glo reagent was added to each well and left for 30 minutes at room temperature and protected from light.
(§3) 5) Envision microplate reader (PerkinElmer) detected chemiluminescence signals.
(§4) 6) GraphPad Prism 8 software was used for data analysis to obtain the IC50 of the compounds of the present disclosure and the positive control.
(In general: Cellular ATP, detected with luciferase, serves as a proxy for viable cell number.)

The target in test [2] is Ba/F3 De119/T790M/C797S EGFR triple mutant cell line (Homo sapiens, UniProt P00533, T790M/C797S, cells depend on it, form not given). Put plainly: Cell proliferation inhibition experiment (CellTiter-Glo), Ba/F3 De119/T790M/C797S. Type of test: cell-based. Particulars: Ba/F3 Del19/T790M/C797S EGFR triple mutant cells, 72 hours, Cell Titer-Glo; read-out: Ba/F3 (Del19/T790M/C797S) IC50. As for the experimental part:
as §1, §2, §3, §4

A further test has as its target T1, wild-type EGFR (Homo sapiens, UniProt P00533).
T1 construct: purchased Signalchem
Put plainly: Enzymology experiment in vitro (HTRF/FRET kinase activity), wild-type EGFR. The test is classed as biochemical. The following applies: HTRF KinEASE-TK, read-out: EGFR (WT) IC50. As for the experimental part: (§5) 1. Experimental Materials
(§6) HTRF KinEASE-TK kit detection reagent, purchased from Cisbio
(§7) 1) 10 nL of gradient diluted compound was transferred into a 384-well experimental plate using Echo 550 (Labcyte).
(§8) 2) 5 μL of 2×EGFR enzyme solution was added to the 384-well experimental plate and incubated at room temperature for 10 minutes.
(§9) 3) 5 μL of 2× substrate solution containing polypeptide and ATP was added to the 384-well experimental plate and incubated at room temperature for 40 minutes.
(§10) 4) 10 μL of detection solution containing EDTA, XL665-labeled streptavidin and Eu^3+-labeled antibody was added thereto and incubated at room temperature for 1 hour.
Background: TR-FRET usually uses a lanthanide donor and a delayed reading to cut background.

Test [3] concerns the target T2, L858R/T790M/C797S triple mutant EGFR (Homo sapiens, UniProt P00533, C797S/L858R/T790M).
T2 construct: purchased Signalchem
Put plainly: Enzymology experiment in vitro (HTRF/FRET kinase activity), L858R/T790M/C797S triple mutant EGFR. The test is classed as biochemical. The following applies: HTRF KinEASE-TK, read-out: EGFR (L858R/T790M/C797S) IC50. As for the experimental part:
as §5, §6, §7, §8, §9, §10

For test [4], the system named is EGFR wild-type cell line A431. Description: Cell proliferation inhibition experiment (CellTiter-Glo), A431. Type of test: cell-based. The following applies: A431 cells, Cell Titer-Glo, read-out: A431 EGFR WT IC50. As for the experimental part: A431 cells, purchased from ATCC.
1) A431 cells were inoculated in a 384-well culture plate at a density of 800 cells per well, 30 μL per well, placed in a cell incubator, and cultured for 24 hours (37° C., 5% CO2).
as §1, §2, §3, §4

Like-named read-outs stand apart in the source and are kept apart here.

T1 sequence (P00533 25-1210): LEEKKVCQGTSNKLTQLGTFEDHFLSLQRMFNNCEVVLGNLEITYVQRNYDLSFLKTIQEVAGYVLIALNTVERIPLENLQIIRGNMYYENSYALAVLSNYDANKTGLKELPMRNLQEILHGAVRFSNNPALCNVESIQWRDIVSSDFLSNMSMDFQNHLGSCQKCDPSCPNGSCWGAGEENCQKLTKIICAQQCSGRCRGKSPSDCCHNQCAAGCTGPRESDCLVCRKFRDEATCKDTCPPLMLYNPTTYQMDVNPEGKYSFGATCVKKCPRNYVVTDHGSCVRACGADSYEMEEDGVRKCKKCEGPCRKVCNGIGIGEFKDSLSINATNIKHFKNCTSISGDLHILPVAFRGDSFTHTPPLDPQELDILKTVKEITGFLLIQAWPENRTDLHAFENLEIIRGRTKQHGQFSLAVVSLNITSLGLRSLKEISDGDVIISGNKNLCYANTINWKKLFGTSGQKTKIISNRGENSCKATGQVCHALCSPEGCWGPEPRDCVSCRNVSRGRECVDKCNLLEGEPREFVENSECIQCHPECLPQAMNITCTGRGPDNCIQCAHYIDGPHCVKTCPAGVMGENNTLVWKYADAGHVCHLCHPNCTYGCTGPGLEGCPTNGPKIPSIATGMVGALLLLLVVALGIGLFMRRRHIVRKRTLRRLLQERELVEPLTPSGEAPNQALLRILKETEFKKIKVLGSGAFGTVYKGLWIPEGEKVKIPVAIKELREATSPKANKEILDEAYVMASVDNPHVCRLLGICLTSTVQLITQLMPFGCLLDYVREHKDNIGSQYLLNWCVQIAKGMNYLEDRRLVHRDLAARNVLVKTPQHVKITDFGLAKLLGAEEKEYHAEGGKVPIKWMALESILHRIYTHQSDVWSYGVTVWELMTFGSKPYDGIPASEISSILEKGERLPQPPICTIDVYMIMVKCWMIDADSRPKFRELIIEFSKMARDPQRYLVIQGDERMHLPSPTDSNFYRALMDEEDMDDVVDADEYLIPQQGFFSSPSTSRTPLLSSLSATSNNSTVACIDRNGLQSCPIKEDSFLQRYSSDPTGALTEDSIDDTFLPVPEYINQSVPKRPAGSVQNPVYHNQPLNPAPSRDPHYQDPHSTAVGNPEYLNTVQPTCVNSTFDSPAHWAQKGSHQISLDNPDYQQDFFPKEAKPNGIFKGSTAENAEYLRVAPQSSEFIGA
T2 sequence (P00533 25-1210 T790M/C797S/L858R): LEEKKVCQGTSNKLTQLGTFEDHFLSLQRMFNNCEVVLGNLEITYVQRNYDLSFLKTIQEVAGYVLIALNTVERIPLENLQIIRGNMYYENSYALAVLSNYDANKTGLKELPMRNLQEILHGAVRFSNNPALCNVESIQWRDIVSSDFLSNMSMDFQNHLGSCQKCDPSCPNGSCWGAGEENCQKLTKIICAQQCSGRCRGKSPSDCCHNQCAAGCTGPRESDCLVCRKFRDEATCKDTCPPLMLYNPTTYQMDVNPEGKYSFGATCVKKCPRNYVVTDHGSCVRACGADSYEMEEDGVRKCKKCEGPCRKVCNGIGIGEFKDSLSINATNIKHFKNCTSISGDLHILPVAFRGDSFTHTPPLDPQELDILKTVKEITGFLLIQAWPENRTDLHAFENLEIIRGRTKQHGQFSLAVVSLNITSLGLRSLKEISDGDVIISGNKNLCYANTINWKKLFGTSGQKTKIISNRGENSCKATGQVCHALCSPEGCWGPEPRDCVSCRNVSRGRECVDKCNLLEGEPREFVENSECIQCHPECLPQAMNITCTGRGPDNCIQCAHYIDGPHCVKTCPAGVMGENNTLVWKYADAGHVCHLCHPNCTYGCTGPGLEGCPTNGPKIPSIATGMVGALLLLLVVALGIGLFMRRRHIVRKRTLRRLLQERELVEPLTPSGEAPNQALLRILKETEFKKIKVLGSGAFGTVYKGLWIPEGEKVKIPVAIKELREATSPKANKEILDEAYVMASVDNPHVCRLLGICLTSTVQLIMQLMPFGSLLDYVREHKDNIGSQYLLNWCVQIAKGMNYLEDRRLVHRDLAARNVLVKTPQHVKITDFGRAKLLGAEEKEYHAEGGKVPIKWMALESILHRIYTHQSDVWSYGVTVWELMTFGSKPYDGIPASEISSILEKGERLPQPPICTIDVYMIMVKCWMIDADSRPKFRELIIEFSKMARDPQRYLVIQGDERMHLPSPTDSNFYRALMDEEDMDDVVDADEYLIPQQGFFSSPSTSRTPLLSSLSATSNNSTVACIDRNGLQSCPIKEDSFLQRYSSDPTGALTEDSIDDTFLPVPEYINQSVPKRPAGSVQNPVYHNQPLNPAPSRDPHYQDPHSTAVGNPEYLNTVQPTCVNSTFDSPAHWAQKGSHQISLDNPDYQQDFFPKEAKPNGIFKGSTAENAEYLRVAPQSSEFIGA
Chain of Ba/F3 L858R/T790M/C797S EGFR triple mutant cell line (P00533 whole entry T790M/C797S/L858R): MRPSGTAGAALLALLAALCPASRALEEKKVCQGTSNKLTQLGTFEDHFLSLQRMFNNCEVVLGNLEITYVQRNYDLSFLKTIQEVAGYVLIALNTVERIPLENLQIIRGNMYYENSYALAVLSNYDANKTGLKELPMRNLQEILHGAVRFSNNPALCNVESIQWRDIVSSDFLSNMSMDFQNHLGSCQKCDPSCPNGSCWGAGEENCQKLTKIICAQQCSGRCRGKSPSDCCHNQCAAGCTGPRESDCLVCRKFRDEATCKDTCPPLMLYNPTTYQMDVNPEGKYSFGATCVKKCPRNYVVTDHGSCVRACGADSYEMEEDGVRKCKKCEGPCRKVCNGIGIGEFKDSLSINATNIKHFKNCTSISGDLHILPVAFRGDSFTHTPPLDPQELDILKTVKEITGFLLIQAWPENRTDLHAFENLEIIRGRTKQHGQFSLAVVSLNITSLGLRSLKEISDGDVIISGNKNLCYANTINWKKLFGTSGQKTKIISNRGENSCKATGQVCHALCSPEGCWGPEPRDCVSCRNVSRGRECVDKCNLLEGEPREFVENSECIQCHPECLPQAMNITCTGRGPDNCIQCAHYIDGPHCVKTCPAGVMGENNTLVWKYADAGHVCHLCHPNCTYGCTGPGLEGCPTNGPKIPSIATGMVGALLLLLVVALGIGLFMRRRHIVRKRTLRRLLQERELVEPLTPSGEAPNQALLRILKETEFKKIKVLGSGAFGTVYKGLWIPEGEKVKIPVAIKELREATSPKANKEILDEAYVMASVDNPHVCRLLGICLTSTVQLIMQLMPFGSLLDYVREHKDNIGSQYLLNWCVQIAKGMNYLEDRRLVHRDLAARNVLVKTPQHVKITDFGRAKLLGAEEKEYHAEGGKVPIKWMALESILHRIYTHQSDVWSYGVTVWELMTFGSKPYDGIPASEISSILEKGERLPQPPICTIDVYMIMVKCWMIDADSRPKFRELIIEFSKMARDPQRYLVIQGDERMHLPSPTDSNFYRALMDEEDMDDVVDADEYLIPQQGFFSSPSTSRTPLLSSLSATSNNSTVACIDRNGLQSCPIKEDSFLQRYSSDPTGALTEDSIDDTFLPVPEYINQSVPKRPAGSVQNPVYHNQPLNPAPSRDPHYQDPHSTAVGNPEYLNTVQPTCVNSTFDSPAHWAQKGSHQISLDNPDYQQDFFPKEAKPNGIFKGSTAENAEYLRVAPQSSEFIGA
Chain of Ba/F3 De119/T790M/C797S EGFR triple mutant cell line (P00533 with tags, fused parts or gaps DEL746-750/T790M/C797S, form open): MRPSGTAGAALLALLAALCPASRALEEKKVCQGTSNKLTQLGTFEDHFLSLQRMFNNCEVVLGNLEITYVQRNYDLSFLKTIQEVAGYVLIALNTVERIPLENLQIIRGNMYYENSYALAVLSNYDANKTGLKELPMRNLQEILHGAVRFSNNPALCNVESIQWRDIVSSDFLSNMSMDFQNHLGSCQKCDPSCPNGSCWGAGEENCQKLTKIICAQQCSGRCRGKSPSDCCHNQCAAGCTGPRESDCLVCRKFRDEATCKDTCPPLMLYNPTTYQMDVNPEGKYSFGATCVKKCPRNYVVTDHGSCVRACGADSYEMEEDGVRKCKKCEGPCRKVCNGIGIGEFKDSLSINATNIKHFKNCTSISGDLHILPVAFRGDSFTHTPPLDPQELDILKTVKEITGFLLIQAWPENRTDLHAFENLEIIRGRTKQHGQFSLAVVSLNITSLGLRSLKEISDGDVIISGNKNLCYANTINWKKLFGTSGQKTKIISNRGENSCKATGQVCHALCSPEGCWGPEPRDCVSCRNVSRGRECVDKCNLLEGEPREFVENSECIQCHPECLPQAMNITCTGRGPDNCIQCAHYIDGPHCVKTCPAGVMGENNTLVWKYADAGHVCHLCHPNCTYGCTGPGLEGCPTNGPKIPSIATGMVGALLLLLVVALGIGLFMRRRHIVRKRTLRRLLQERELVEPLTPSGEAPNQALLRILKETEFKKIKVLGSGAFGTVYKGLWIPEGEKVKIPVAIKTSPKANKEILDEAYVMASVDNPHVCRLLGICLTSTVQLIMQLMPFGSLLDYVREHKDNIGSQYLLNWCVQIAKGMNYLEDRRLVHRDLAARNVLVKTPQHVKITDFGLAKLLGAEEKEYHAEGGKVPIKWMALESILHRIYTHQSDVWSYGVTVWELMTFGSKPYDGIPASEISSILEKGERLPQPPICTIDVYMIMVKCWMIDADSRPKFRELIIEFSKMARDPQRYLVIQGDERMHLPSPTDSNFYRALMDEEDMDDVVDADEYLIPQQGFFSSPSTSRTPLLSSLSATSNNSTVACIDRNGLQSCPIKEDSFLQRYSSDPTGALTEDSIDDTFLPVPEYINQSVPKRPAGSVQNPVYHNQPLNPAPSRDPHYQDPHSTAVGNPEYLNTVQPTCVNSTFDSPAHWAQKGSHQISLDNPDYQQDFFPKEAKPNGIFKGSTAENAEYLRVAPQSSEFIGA

Take `COc1cc(N2CC(C)OC(C)C2)c(-c2cnn(C)c2)cc1Nc1ncc(Br)c(Nc2ccc3nccnc3c2P(C)(C)=O)n1` (racemic) [compound 135, (6-((5-bromo-2-((4-(trans-2,6-dimethylmorpholinyl)-2-methoxy-5-(1-methyl-1H-pyrazol-4-yl)phenyl)amino))pyrimidin-4-yl)amino)quinoxalin-5-yl)dimethylphosphine oxide]: the GI50 was 13.3 nM in test [1] and 3.68 nM in test [2]. The IC50 at wild-type EGFR turned out to be 15.6 nM; in test [3], 0.47 nM; in test [4] (Homo sapiens, A-431, 72 h), 402 nM.

As for `COc1cc(N2CC(C)OC(C)C2)c(-c2cnn(C)c2)cc1Nc1ncc(Br)c(Nc2cc3c(cc2P(C)(C)=O)CC3)n1` (racemic) [compound 136], the GI50 stood at 57.1 nM in test [1] and 13.7 nM in test [2]. Further, the IC50 on wild-type EGFR came out at 99.5 nM; in test [3], 5.3 nM; in test [4] (Homo sapiens, A-431, 72 h) it was 1750 nM.

On to `COc1cc(N2CC(C)OC(C)C2)c(-c2cnn(C)c2)cc1Nc1ncc(Br)c(Nc2cc3c(cc2P(C)(C)=O)CC3)n1` (racemic) [compound 137], for which the GI50 came to 77.8 nM in test [1] and 27.1 nM in test [2]. Besides, the IC50 stood at 170 nM at wild-type EGFR, 9.81 nM in test [3] and 1500 nM in test [4] (72 hours).

With `COc1cc(N2CCC(N3CCOC(C)C3)CC2)c(-c2cnn(C)c2)cc1Nc1ncc(Br)c(Nc2ccc3nccnc3c2P(C)(C)=O)n1` (racemic) [compound 148, (6-((5-bromo-2-((2-methoxy-5-(1-methyl-1H-pyrazol-4-yl)-4-(4-(2-methylmorpholinyl)piperidin-1-yl)phenyl)amino)pyrimidin-4-yl)amino)quinoxalin-5-yl)dimethylphosphine oxide], the GI50 in test [1] was found to be 2.78 nM; in test [2] it was 0.7 nM. The IC50 worked out at 5.04 nM at wild-type EGFR; 0.64 nM in test [3]; 124 nM in test [4] (Homo sapiens, A-431, 72 h).

As to `COc1cc(N2CCC(N3CC(C)OC(C)C3)CC2)c(-c2cnn(C)c2)cc1Nc1ncc(Br)c(Nc2ccc3nccnc3c2P(C)(C)=O)n1` (racemic) [compound 174], the results for the GI50 in test [1] and in test [2] were 7.85 nM and 4.63 nM, respectively. In addition, the IC50 on wild-type EGFR was determined as 2.39 nM; in test [3], 0.6 nM; in test [4] (Homo sapiens, A-431, 72 h), 307 nM.

As for `COc1cc(S(C)(=O)=O)c(-c2cnn(C)c2)cc1Nc1ncc(Br)c(Nc2ccc3nccnc3c2P(C)(C)=O)n1` [compound 44], the GI50 in test [2] was determined as 93.5 nM. Also, the IC50 is 1560 nM on wild-type EGFR; 22 nM in test [3]; at least 5000 nM in test [4] (Homo sapiens, A-431, 72 h).

For `CN1CCOc2c(Nc3ncc(Br)c(Nc4ccc5nccnc5c4P(C)(C)=O)n3)cc(-c3cnn(C)c3)cc21` [compound 47], the GI50 in test [2] was 4.31 nM. In addition, the IC50 was found to be 20.5 nM on wild-type EGFR; 0.37 nM in test [3]; 126 nM in test [4] (Homo sapiens, A-431, 72 h).

For the compound `CCn1cc(-c2cc(Nc3ncc(Br)c(Nc4ccc5nccnc5c4P(C)(C)=O)n3)c(OC)cc2N2CCOCC2)cn1` [compound 49], in test [2], the GI50 turned out to be 4.88 nM. The IC50 at wild-type EGFR worked out at 21.5 nM; in test [3], 0.12 nM; in test [4] (Homo sapiens, A-431, 72 h) it was 234 nM.

`Cn1cc(-c2cc(Nc3ncc(Br)c(Nc4ccc5nccnc5c4P(C)(C)=O)n3)c3c(c2N2CCOCC2)CCCO3)cn1` [compound 51]: in test [1], the GI50 stood at 36.8 nM. The IC50 stood at 111 nM at wild-type EGFR; 0.11 nM in test [3]; 292 nM in test [4] (Homo sapiens, A-431, 72 h).

With `COc1cnc(-c2cnn(C)c2)cc1Nc1ncc(C)c(Nc2ccc3nccnc3c2P(C)(C)=O)n1` [compound 53], the GI50 in test [2] turned out to be 62.2 nM. Besides, the IC50 amounted to 87 nM at wild-type EGFR; 3.6 nM in test [3]; 294 nM in test [4] (Homo sapiens, A-431, 72 h).

As for `COc1cc(N2CCC(N3CCOCC3)CC2)c(-c2cnn(C)c2)cc1Nc1ncc(Br)c(Nc2ccc3nccnc3c2P(C)(C)=O)n1` [compound 210], the GI50 in test [1] came to 7.23 nM; in test [2] it was 4.42 nM. The IC50 in test [3] was found to be 0.11 nM; in test [4] (72 hours), 275 nM.
